Data reported in PubChem BioAssay (NCI).
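Where inhibition never reached the appropriate level, the endpoint shown equals the highest concentration tested. Otherwise, values were interpolated linearly from a five-concentration, 48-hour dose response in 96-well plates. Here, GI50 denotes the concentration required for 50% inhibition of growth. TGI: concentration producing complete growth inhibition.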

System: 786-0 renal
Assay: inhibition of tumour cell growth, NCI panel, 48 h

Row | SMILES | TGI [µM] | GI50 [µM]
1 | CCN(CC)CCOc1ccc(/C=C(\C#N)c2ccc(OCCN(CC)CC)cc2)cc1 | 25.5 | –
2 | Cc1ccc(NC(=O)c2c(C)nc(=O)n3c2N(/N=C/c2ccc(Cl)cc2)CC3)cc1 | 33.8 | –
3 | CC1=Nc2ccccc2C1C(Cc1ccccc1N)c1c(C)[nH]c2ccccc12 (configuration not stated) | 28.6 | –
4 | CCOP(=O)(Cc1ccc(CP(=O)(OCC)OCC)n1C)OCC | > 100 | –
5 | O=C(Nc1nc2ncn(CCI)c2c(=O)[nH]1)c1ccccc1 | > 100 | –
6 | CC(O)C(N=Cc1ccccc1[O-])C(=O)[O-].CC(O)C(N=Cc1ccccc1[O-])C(=O)[O-].[Co+2] (configuration not stated) | > 100 | > 100

System: A498 renal
Assay: inhibition of tumour cell growth, NCI panel, 48 h

Row | SMILES | TGI [µM]
7 | O=C(/C=C/c1ccc(O)cc1)OC[C@@H](O)COC1OC(CO)C(O)C(O)C1O (some centres not stated) | > 100
8 | CCN(CC)CCOc1ccc(/C=C(\C#N)c2ccc(OCCN(CC)CC)cc2)cc1 | 32.2
9 | Cc1ccc(NC(=O)c2c(C)nc(=O)n3c2N(/N=C/c2ccc(Cl)cc2)CC3)cc1 | 33.1
10 | CC1=Nc2ccccc2C1C(Cc1ccccc1N)c1c(C)[nH]c2ccccc12 (configuration not stated) | 29.8
11 | O=C(Nc1nc2ncn(CCI)c2c(=O)[nH]1)c1ccccc1 | 83.3

System: A549 NSCLC
Assay: inhibition of tumour cell growth, NCI panel, 48 h

Row | SMILES | TGI [µM] | GI50 [µM]
12 | O=C(/C=C/c1ccc(O)cc1)OC[C@@H](O)COC1OC(CO)C(O)C(O)C1O (some centres not stated) | > 100 | –
13 | CCN(CC)CCOc1ccc(/C=C(\C#N)c2ccc(OCCN(CC)CC)cc2)cc1 | 44.7 | –
14 | CC1=Nc2ccccc2C1C(Cc1ccccc1N)c1c(C)[nH]c2ccccc12 (configuration not stated) | 32.8 | –
15 | CCOP(=O)(Cc1ccc(CP(=O)(OCC)OCC)n1C)OCC | > 100 | –
16 | O=C(Nc1nc2ncn(CCI)c2c(=O)[nH]1)c1ccccc1 | > 100 | –
17 | CC(O)C(N=Cc1ccccc1[O-])C(=O)[O-].CC(O)C(N=Cc1ccccc1[O-])C(=O)[O-].[Co+2] (configuration not stated) | > 100 | > 100

System: ACHN renal
Assay: inhibition of tumour cell growth, NCI panel, 48 h

Row | SMILES | TGI [µM] | GI50 [µM]
18 | O=C(/C=C/c1ccc(O)cc1)OC[C@@H](O)COC1OC(CO)C(O)C(O)C1O (some centres not stated) | > 100 | –
19 | CCN(CC)CCOc1ccc(/C=C(\C#N)c2ccc(OCCN(CC)CC)cc2)cc1 | > 58.8 | –
20 | Cc1ccc(NC(=O)c2c(C)nc(=O)n3c2N(/N=C/c2ccc(Cl)cc2)CC3)cc1 | 33.8 | –
21 | CC1=Nc2ccccc2C1C(Cc1ccccc1N)c1c(C)[nH]c2ccccc12 (configuration not stated) | 30.1 | –
22 | CCOP(=O)(Cc1ccc(CP(=O)(OCC)OCC)n1C)OCC | > 100 | –
23 | O=C(Nc1nc2ncn(CCI)c2c(=O)[nH]1)c1ccccc1 | > 100 | –
24 | CC(O)C(N=Cc1ccccc1[O-])C(=O)[O-].CC(O)C(N=Cc1ccccc1[O-])C(=O)[O-].[Co+2] (configuration not stated) | > 100 | > 100

System: CAKI-1 renal
Assay: inhibition of tumour cell growth, NCI panel, 48 h

Row | SMILES | TGI [µM]
25 | CCN(CC)CCOc1ccc(/C=C(\C#N)c2ccc(OCCN(CC)CC)cc2)cc1 | > 60.1
26 | Cc1ccc(NC(=O)c2c(C)nc(=O)n3c2N(/N=C/c2ccc(Cl)cc2)CC3)cc1 | 32.1
27 | CCOP(=O)(Cc1ccc(CP(=O)(OCC)OCC)n1C)OCC | > 100
28 | O=C(Nc1nc2ncn(CCI)c2c(=O)[nH]1)c1ccccc1 | > 100

System: CCRF-CEM leukemia
Assay: inhibition of tumour cell growth, NCI panel, 48 h

Row | SMILES | TGI [µM] | GI50 [µM]
29 | O=C(/C=C/c1ccc(O)cc1)OC[C@@H](O)COC1OC(CO)C(O)C(O)C1O (some centres not stated) | > 100 | –
30 | CCN(CC)CCOc1ccc(/C=C(\C#N)c2ccc(OCCN(CC)CC)cc2)cc1 | 44.2 | –
31 | Cc1ccc(NC(=O)c2c(C)nc(=O)n3c2N(/N=C/c2ccc(Cl)cc2)CC3)cc1 | > 100 | –
32 | CC1=Nc2ccccc2C1C(Cc1ccccc1N)c1c(C)[nH]c2ccccc12 (configuration not stated) | 47.2 | –
33 | CCOP(=O)(Cc1ccc(CP(=O)(OCC)OCC)n1C)OCC | > 100 | –
34 | O=C(Nc1nc2ncn(CCI)c2c(=O)[nH]1)c1ccccc1 | > 100 | –
35 | CC(O)C(N=Cc1ccccc1[O-])C(=O)[O-].CC(O)C(N=Cc1ccccc1[O-])C(=O)[O-].[Co+2] (configuration not stated) | > 100 | 20.1

System: COLO 205 colon
Assay: inhibition of tumour cell growth, NCI panel, 48 h

Row | SMILES | TGI [µM] | GI50 [µM]
36 | CCN(CC)CCOc1ccc(/C=C(\C#N)c2ccc(OCCN(CC)CC)cc2)cc1 | 23 | –
37 | Cc1ccc(NC(=O)c2c(C)nc(=O)n3c2N(/N=C/c2ccc(Cl)cc2)CC3)cc1 | 54.8 | –
38 | CC1=Nc2ccccc2C1C(Cc1ccccc1N)c1c(C)[nH]c2ccccc12 (configuration not stated) | 30.2 | –
39 | CCOP(=O)(Cc1ccc(CP(=O)(OCC)OCC)n1C)OCC | > 100 | –
40 | O=C(Nc1nc2ncn(CCI)c2c(=O)[nH]1)c1ccccc1 | > 100 | –
41 | CC(O)C(N=Cc1ccccc1[O-])C(=O)[O-].CC(O)C(N=Cc1ccccc1[O-])C(=O)[O-].[Co+2] (configuration not stated) | > 100 | > 100

System: DLD-1 colon
Assay: inhibition of tumour cell growth, NCI panel, 48 h

Row | SMILES | TGI [µM] | GI50 [µM]
42 | CCN(CC)CCOc1ccc(/C=C(\C#N)c2ccc(OCCN(CC)CC)cc2)cc1 | > 83.3 | –
43 | Cc1ccc(NC(=O)c2c(C)nc(=O)n3c2N(/N=C/c2ccc(Cl)cc2)CC3)cc1 | 30.7 | –
44 | CC1=Nc2ccccc2C1C(Cc1ccccc1N)c1c(C)[nH]c2ccccc12 (configuration not stated) | 35.4 | –
45 | CCOP(=O)(Cc1ccc(CP(=O)(OCC)OCC)n1C)OCC | > 100 | –
46 | CC(O)C(N=Cc1ccccc1[O-])C(=O)[O-].CC(O)C(N=Cc1ccccc1[O-])C(=O)[O-].[Co+2] (configuration not stated) | > 100 | 83.7

System: DMS 114 small cell lung
Assay: inhibition of tumour cell growth, NCI panel, 48 h

Row | SMILES | TGI [µM]
47 | O=C(/C=C/c1ccc(O)cc1)OC[C@@H](O)COC1OC(CO)C(O)C(O)C1O (some centres not stated) | > 100
48 | CCN(CC)CCOc1ccc(/C=C(\C#N)c2ccc(OCCN(CC)CC)cc2)cc1 | 23.2
49 | Cc1ccc(NC(=O)c2c(C)nc(=O)n3c2N(/N=C/c2ccc(Cl)cc2)CC3)cc1 | 55.1
50 | CC1=Nc2ccccc2C1C(Cc1ccccc1N)c1c(C)[nH]c2ccccc12 (configuration not stated) | 33.5
51 | CCOP(=O)(Cc1ccc(CP(=O)(OCC)OCC)n1C)OCC | > 100

System: DMS 273 small cell lung
Assay: inhibition of tumour cell growth, NCI panel, 48 h

Row | SMILES | TGI [µM]
52 | CCN(CC)CCOc1ccc(/C=C(\C#N)c2ccc(OCCN(CC)CC)cc2)cc1 | 26.5
53 | Cc1ccc(NC(=O)c2c(C)nc(=O)n3c2N(/N=C/c2ccc(Cl)cc2)CC3)cc1 | 43.9
54 | CCOP(=O)(Cc1ccc(CP(=O)(OCC)OCC)n1C)OCC | > 100
55 | O=C(Nc1nc2ncn(CCI)c2c(=O)[nH]1)c1ccccc1 | > 100

System: DU-145 prostate
Assay: inhibition of tumour cell growth, NCI panel, 48 h

Row | SMILES | TGI [µM]
56 | CCN(CC)CCOc1ccc(/C=C(\C#N)c2ccc(OCCN(CC)CC)cc2)cc1 | > 100

System: EKVX NSCLC
Assay: inhibition of tumour cell growth, NCI panel, 48 h

Row | SMILES | TGI [µM] | GI50 [µM]
57 | O=C(/C=C/c1ccc(O)cc1)OC[C@@H](O)COC1OC(CO)C(O)C(O)C1O (some centres not stated) | > 100 | –
58 | CCN(CC)CCOc1ccc(/C=C(\C#N)c2ccc(OCCN(CC)CC)cc2)cc1 | > 80.6 | –
59 | CC1=Nc2ccccc2C1C(Cc1ccccc1N)c1c(C)[nH]c2ccccc12 (configuration not stated) | 37.7 | –
60 | CCOP(=O)(Cc1ccc(CP(=O)(OCC)OCC)n1C)OCC | > 100 | –
61 | O=C(Nc1nc2ncn(CCI)c2c(=O)[nH]1)c1ccccc1 | > 100 | –
62 | CC(O)C(N=Cc1ccccc1[O-])C(=O)[O-].CC(O)C(N=Cc1ccccc1[O-])C(=O)[O-].[Co+2] (configuration not stated) | > 100 | > 100

System: HCC-2998 colon
Assay: inhibition of tumour cell growth, NCI panel, 48 h

Row | SMILES | TGI [µM] | GI50 [µM]
63 | CCN(CC)CCOc1ccc(/C=C(\C#N)c2ccc(OCCN(CC)CC)cc2)cc1 | 32.3 | –
64 | Cc1ccc(NC(=O)c2c(C)nc(=O)n3c2N(/N=C/c2ccc(Cl)cc2)CC3)cc1 | 32.3 | –
65 | CC1=Nc2ccccc2C1C(Cc1ccccc1N)c1c(C)[nH]c2ccccc12 (configuration not stated) | 30.2 | –
66 | CCOP(=O)(Cc1ccc(CP(=O)(OCC)OCC)n1C)OCC | > 100 | –
67 | O=C(Nc1nc2ncn(CCI)c2c(=O)[nH]1)c1ccccc1 | > 100 | –
68 | CC(O)C(N=Cc1ccccc1[O-])C(=O)[O-].CC(O)C(N=Cc1ccccc1[O-])C(=O)[O-].[Co+2] (configuration not stated) | > 100 | 59.8

System: HCT-116 colon
Assay: inhibition of tumour cell growth, NCI panel, 48 h

Row | SMILES | TGI [µM]
69 | O=C(/C=C/c1ccc(O)cc1)OC[C@@H](O)COC1OC(CO)C(O)C(O)C1O (some centres not stated) | > 100
70 | CCN(CC)CCOc1ccc(/C=C(\C#N)c2ccc(OCCN(CC)CC)cc2)cc1 | 21.9
71 | Cc1ccc(NC(=O)c2c(C)nc(=O)n3c2N(/N=C/c2ccc(Cl)cc2)CC3)cc1 | 26.4
72 | CC1=Nc2ccccc2C1C(Cc1ccccc1N)c1c(C)[nH]c2ccccc12 (configuration not stated) | 30.6
73 | O=C(Nc1nc2ncn(CCI)c2c(=O)[nH]1)c1ccccc1 | > 100

System: HCT-15 colon
Assay: inhibition of tumour cell growth, NCI panel, 48 h

Row | SMILES | TGI [µM] | GI50 [µM]
74 | CCN(CC)CCOc1ccc(/C=C(\C#N)c2ccc(OCCN(CC)CC)cc2)cc1 | 30.8 | –
75 | CC1=Nc2ccccc2C1C(Cc1ccccc1N)c1c(C)[nH]c2ccccc12 (configuration not stated) | 51 | –
76 | CCOP(=O)(Cc1ccc(CP(=O)(OCC)OCC)n1C)OCC | > 100 | –
77 | O=C(Nc1nc2ncn(CCI)c2c(=O)[nH]1)c1ccccc1 | > 100 | –
78 | CC(O)C(N=Cc1ccccc1[O-])C(=O)[O-].CC(O)C(N=Cc1ccccc1[O-])C(=O)[O-].[Co+2] (configuration not stated) | > 100 | > 100

System: HL-60(TB) leukemia
Assay: inhibition of tumour cell growth, NCI panel, 48 h

Row | SMILES | TGI [µM] | GI50 [µM]
79 | O=C(/C=C/c1ccc(O)cc1)OC[C@@H](O)COC1OC(CO)C(O)C(O)C1O (some centres not stated) | > 100 | –
80 | CCN(CC)CCOc1ccc(/C=C(\C#N)c2ccc(OCCN(CC)CC)cc2)cc1 | 38.2 | –
81 | Cc1ccc(NC(=O)c2c(C)nc(=O)n3c2N(/N=C/c2ccc(Cl)cc2)CC3)cc1 | 48.7 | –
82 | CC1=Nc2ccccc2C1C(Cc1ccccc1N)c1c(C)[nH]c2ccccc12 (configuration not stated) | 35.7 | –
83 | CCOP(=O)(Cc1ccc(CP(=O)(OCC)OCC)n1C)OCC | > 100 | –
84 | O=C(Nc1nc2ncn(CCI)c2c(=O)[nH]1)c1ccccc1 | > 100 | –
85 | CC(O)C(N=Cc1ccccc1[O-])C(=O)[O-].CC(O)C(N=Cc1ccccc1[O-])C(=O)[O-].[Co+2] (configuration not stated) | > 100 | 39.1

System: HOP-18 NSCLC
Assay: inhibition of tumour cell growth, NCI panel, 48 h

Row | SMILES | TGI [µM]
86 | CCN(CC)CCOc1ccc(/C=C(\C#N)c2ccc(OCCN(CC)CC)cc2)cc1 | 57.3
87 | CC1=Nc2ccccc2C1C(Cc1ccccc1N)c1c(C)[nH]c2ccccc12 (configuration not stated) | 24.8
